Test results as given in patent publication US20100227381A1, “ENHANCED BIODEGRADATION OF NON-AQUEOUS PHASE LIQUIDS USING SURFACTANT ENHANCED IN-SITU CHEMICAL OXIDATION” (VERUTEK TECHNOLOGIES, INC., priority 2007, published 2010).

How the values were obtained:
[1] = Chlorinated DNAPL dissolution in control sample without cosolvent-surfactant (equilibrium solubility in water in presence of the DNAPL); conditions: 25 °C, thermodynamic from solid
Method: In order to test the treatment of chlorinated compounds, a chlorinated solvent DNAPL was obtained from a site consisting of chlorinated solvents and chlorinated semi-volatile compounds. […]
The data collected under the experimentation conditions presented in Table 2 were obtained at 25° C. with 60 rpm shaker table mixing for 48 hours. After the shaker was shut off, the samples sat quietly for 5 minutes before the supernatant was analyzed. DNAPLmax represents the maximum concentration of DNAPL that may dissolve, given the mass of DNAPL and the volume of water.
Samples from experiment number 1, 3, 5, 7, and 8 (control) were analyzed. Additionally, measurements of interfacial tension (IFT) were conducted on the samples after the 48-hour period.

[2] = pure compound in water; cited from earlier work

Compound | solubility at 48 h [1] | Pure Compound Aqueous Solubility [2]
ClC(Cl)=C(Cl)Cl [Tetrachloroethene (PCE), Tetrachloroethene] | 140 µg/mL | 800 µg/mL
ClC(Cl)=C(Cl)C(Cl)=C(Cl)Cl [Hexachlorobutadiene (HCBD), Hexachlorobutadiene] | – | 0.005 µg/mL
ClC(Cl)(Cl)C(Cl)(Cl)Cl [Hexachloroethane (HCE), Hexachloroethane] | – | 50 µg/mL
Clc1c(Cl)c(Cl)c2c(Cl)c(Cl)c(Cl)c(Cl)c2c1Cl [Octachloronaphthalene (OCN), Octachloronaphthalene] | – | insoluble
